Each block holds one compound with its values, some of them ahead of it.
Columns and labels:
[1] = target: BRM (Homo sapiens, UniProt P51531); assay: biochemical
[2] = Body weight change of tumor-bearing mice (Example 16); format: in vivo; conditions: all treatments, once daily oral gavage, 3 weeks
[3] = test system: uveal melanoma and hematologic cancer cell lines versus the other tested cell lines; assay: Growth of uveal melanoma, hematological and other cancer cell lines, day 3 and day 7, Cell-titer glo (Example 7); format: cell-based
[4] = test system: parental MP41 cells; assay: 7-day growth inhibition assay, parental cells (Example 14)
[5] = test system: Uveal melanoma cell lines (92-1, MP41, MP38, MP46) and non-small cell lung cancer cells (NCIH1299); assay: 3-day growth inhibition, Cell-titer glow (Example 12); format: cell-based; conditions: 0 to 10 μM, 3 days
[6] = test system: uveal melanoma, hematologic cancer, prostate cancer, breast cancer, and Ewing's sarcoma cell lines versus the other tested cell lines; conditions: 0 to 10 μM; day 3 and day 7
[7] = test system: PKC inhibitor (PKCi)-resistant MP41 uveal melanoma cells; assay: 7-day growth inhibition assay, PKC inhibitor-resistant cells (Example 14)
[8] = Body weight change of tumor-bearing mice (Example 18); format: in vivo; conditions: all treatments, once daily oral gavage, 3 weeks
[9] = test system: 92-1 uveal melanoma cells; assay: Uveal melanoma tumor growth inhibition in vivo (Example 18); set-up: species or system Nude mice; conditions: once daily oral gavage, increasing doses, 3 weeks
[10] = test system: Uveal melanoma cell lines (92-1, MEL202, MP41, MP38, MP46), prostate cancer cells (22RV1), acute leukemia cells (EOL1, THP1), and histocytic lymphoma cells …; assay: 3-day growth inhibition, Cell-titer glow, all cell lines (Example 17); format: cell-based; conditions: 0 to 2 μM (uveal melanoma) or 0 to 1 μM (other cell lines), 3 days

BRM, sequence (P51531 whole entry): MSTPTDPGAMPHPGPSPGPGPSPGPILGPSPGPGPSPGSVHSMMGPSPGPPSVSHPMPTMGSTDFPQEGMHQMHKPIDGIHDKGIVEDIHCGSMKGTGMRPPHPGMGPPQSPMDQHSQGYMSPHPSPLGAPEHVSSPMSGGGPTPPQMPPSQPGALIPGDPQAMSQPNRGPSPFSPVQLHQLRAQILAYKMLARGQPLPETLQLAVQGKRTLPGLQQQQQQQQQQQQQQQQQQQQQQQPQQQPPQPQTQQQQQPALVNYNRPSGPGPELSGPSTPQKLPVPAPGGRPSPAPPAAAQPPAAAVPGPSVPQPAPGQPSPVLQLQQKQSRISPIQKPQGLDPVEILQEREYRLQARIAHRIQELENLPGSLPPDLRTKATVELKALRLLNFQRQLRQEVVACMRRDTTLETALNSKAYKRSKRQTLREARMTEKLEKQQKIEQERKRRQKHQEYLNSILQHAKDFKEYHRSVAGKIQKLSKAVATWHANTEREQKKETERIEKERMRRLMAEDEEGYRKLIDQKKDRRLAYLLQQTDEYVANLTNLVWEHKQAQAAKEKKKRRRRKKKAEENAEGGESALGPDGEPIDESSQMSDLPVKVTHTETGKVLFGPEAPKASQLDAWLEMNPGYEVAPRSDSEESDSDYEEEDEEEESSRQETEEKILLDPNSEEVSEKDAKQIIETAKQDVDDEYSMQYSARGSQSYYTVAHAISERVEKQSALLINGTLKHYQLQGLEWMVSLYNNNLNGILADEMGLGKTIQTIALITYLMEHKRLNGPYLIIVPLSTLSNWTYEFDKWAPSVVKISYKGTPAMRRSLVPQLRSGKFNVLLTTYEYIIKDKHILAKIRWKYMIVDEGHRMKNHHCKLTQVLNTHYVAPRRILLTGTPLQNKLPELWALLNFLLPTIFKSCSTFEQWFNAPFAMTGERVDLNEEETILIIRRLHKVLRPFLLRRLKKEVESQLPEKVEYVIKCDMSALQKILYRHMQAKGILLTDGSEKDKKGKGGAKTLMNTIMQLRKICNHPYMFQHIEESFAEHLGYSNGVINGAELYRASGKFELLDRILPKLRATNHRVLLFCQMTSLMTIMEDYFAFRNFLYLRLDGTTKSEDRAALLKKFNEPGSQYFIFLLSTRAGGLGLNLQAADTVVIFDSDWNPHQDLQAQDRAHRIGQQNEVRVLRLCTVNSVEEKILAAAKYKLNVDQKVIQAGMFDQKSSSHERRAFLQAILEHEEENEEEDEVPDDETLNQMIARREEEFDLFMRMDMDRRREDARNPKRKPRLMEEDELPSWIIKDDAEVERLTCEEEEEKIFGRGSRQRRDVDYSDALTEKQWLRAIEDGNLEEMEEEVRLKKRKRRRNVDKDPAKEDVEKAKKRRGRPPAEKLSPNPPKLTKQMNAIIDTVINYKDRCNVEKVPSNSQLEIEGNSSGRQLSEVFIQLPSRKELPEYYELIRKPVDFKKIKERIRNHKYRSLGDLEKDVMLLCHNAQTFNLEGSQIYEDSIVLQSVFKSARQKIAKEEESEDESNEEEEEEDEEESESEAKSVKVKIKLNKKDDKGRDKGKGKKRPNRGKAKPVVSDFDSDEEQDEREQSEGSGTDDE

IC50 [1]: 4.6 nM
Structure (SMILES): [2H]C([2H])([2H])OC([2H])([2H])[C@H](NC(=O)c1ccn(S(C)(=O)=O)c1)C(=O)Nc1nc(-c2cccc(N3C[C@@H](C)O[C@@H](C)C3)n2)cs1 [N—((S)-1-((4-(6-(cis-2,6-dimethylmorpholino)pyridin-2-yl)thiazol-2-yl)amino)-3-(methoxy-d3)-1-oxopropan-2-yl-3,3-d2)-1-(methylsulfonyl)-1H-pyrrole-3-carboxamide]

Structure (SMILES): C[C@@H]1CN(c2cccc(-c3csc(NC(=O)CNC(=O)c4ccn(C(C)(C)C)c4)n3)n2)C[C@H](C)O1 [Compound C]
tolerability, body weight change (FIG. 13) [2]: well tolerated with no body weight loss observed

Structure (SMILES): CSCC[C@H](NC(=O)c1ccc(N)cc1)C(=O)Nc1nc(-c2cccc(-c3ccncc3)c2)cs1 [Compound A]
sensitivity of cell lines to growth inhibition (GI50, FIG. 1) ([3]; 0 to 10 μM, day 3 and day 7): more sensitive to BRG1/BRM inhibition than the other tested cell lines
duration of growth inhibition ([3]; uveal melanoma and hematologic cancer cell lines): maintained through day 7

IC50 [1]: 443 nM
Structure (SMILES): [2H]C([2H])([2H])OC([2H])([2H])[C@@H](NC(=O)c1ccn(S(C)(=O)=O)c1)C(=O)Nc1nc(-c2cccc(N3C[C@@H](C)O[C@@H](C)C3)n2)cs1 [N—((R)-1-((4-(6-(cis-2,6-dimethylmorpholino)pyridin-2-yl)thiazol-2-yl)amino)-3-(methoxy-d3)-1-oxopropan-2-yl-3,3-d2)-1-(methylsulfonyl)-1H-pyrrole-3-carboxamide]

Structure (SMILES): CSCC[C@H](NC(=O)c1ccn(S(C)(=O)=O)c1)C(=O)Nc1nc(-c2cccc(-c3ccncc3)c2)cs1 [Compound B]
growth inhibition, parental MP41 cell line (FIG. 10) [4]: strong growth inhibition
growth inhibition (FIG. 6) [5]: potent growth inhibition in the cell lines
sensitivity of cell lines to growth inhibition (FIG. 4) [6]: more sensitive to BRG1/BRM inhibition than the other tested cell lines

Structure (SMILES): CC1(N)CCN(c2cccnc2NC(=O)c2nc(-c3ncccc3C(F)(F)F)cnc2N)CC1 [LXS196]
sensitivity of PKCi-resistant cells relative to parental MP41 cells (FIG. 9, FIG. 10) [7]: could tolerate growth at higher concentrations of LXS196 than could the parental MP41 cell line

Structure (SMILES): COC[C@H](NC(=O)c1ccn(S(C)(=O)=O)c1)C(=O)Nc1nc(-c2cccc(N3C[C@@H](C)O[C@@H](C)C3)n2)cs1 [N—((S)-1-((4-(6-(cis-2,6-dimethylmorpholino)pyridin-2-yl)thiazol-2-yl)amino)-3-methoxy-1-oxopropan-2-yl)-1-(methylsulfonyl)-1H-pyrrole-3-carboxamide]
tolerability based on % body weight change (FIG. 16) [8]: well tolerated
tumor growth inhibition (FIG. 15) [9]: tumor growth inhibition in a dose-dependent manner
growth inhibition (FIG. 14) [10]: potent growth inhibition in all the cell lines
IC50 [1]: 3.9 nM
